Assay results: patent US20240058363A1 (Emyria, priority 2020, published 2024)

Columns and labels:
Type in all cases: in vivo, human
symptoms of depression = assay: DASS-21 depression score in patients treated with CBD only (clinical data registry); conditions: for DASS-21 Depression Score, Post 1-month follow-up Mean (Std. dev): mean days of treatment 47 (+/−23)
Source text: (§1) Detailed demographic information and validated standardised questionnaires were collected as part of routine care. Written informed consent to treatment was obtained from all patients, as well as additional consent to participate in Emyria's clinical data registry, data from participating patients were anonymised, aggregated, and analysed to establish clinical efficacy.
Clinically validated tools were used to monitor patients for management of symptoms, quality of life, physical/emotional functioning, and concomitant medication usage. Patients were asked about their cannabis history and initially pre-screened for any illicit cannabis use before commencing on medicinal cannabis treatment using the Cannabis Use Disorder Identification Test (CUDIT), a urine screen was performed to confirm negative result for cannabis in their urine before they commence treatment. After they commenced on medicinal cannabis treatment they were initially treated with low doses and monitored for safety and efficacy of treatment before dose escalation is considered.
Patients are excluded from treatment with medicinal cannabis if they: were pregnant or breast-feeding; have untreated heart disease, heart failure or arrhythmia; a history of severe psychiatric disorders; active suicidal ideation; a history of dependence on cannabis; a history of dependence or abuse of psychoactive substances; detectable urinary THC before commencement of medicinal cannabis.
(§2) A potentially eligible individual who met any of the following criteria will be excluded from participation if the following criteria is met: • 1. Clinically recorded cannabis drug addiction, or cannabis use disorder including individuals with scores 8 or more on the Cannabis Use Disorder Identification Test (CUDIT). • 2. Untreated cardiovascular disease, arrhythmias (other than well controlled atrial fibrillation), or severe heart failure. • 3. History of suicide attempts or suicidal ideation. • 4. History of psychotic episode, schizophrenia or other psychotic disorders.
(§3) Patients were assessed monthly by the clinical team (doctor and nurse) and a visit schedule protocol was followed for each patient. A full medical history was conducted at the initial visit, including a detailed history of the clinical indication (including duration symptoms), comorbidities mental and cardiac health conditions, previous procedures, medications and therapies tried. Patients were reviewed as per the Schedule of Assessments (FIG. 2). Cannabinoid dose and Adverse events were also recorded at each visit after treatment began and categorised as mild (no product change indicated), moderate (product change indicated), severe (product cessation indicated) or serious (life-threatening/medical emergency).
(§4) The doctors treating patients prescribed orally-based medicinal cannabis standardised products as per approval under the Therapeutic Goods Administration (TGA) through the Special Access Scheme (SAS) Category B and Authorised Prescriber (AP) scheme. The prescribing doctor will decide which product type including THC/CBD ratio and CBD only, based on TGA guidance documents (ie for pain THC/CBD type is generally prescribed) [see https://www.tga.gov.au/medicinal-cannabis-guidance-documents], but also will factor in patient's circumstances such as driving (then CBD only prescribed).
Treatment dosing by the prescribing doctor was in accordance with Emyria (Emerald Clinics) experience, well-tolerated with minimal side effects. Doctors reviewed patients after the 14 day (2 week), see the Schedule of Assessments (FIG. 2). Following the 2-week dosing review where a doctor may increase/decrease the dosage or change product type, patients were then seen regularly (generally monthly) as per the Schedule of Assessments (FIG. 2). Patients taking CBD only products were prescribed either oil or capsules. […]

symptoms of anxiety = assay: DASS-21 anxiety score in patients treated with CBD only (clinical data registry); conditions: for DASS-21 Anxiety Score, Post 1-month follow-up Mean (Std. dev): mean days of treatment 47 (+/−23)
Source text: as §1
Clinically validated tools were used to monitor patients for management of symptoms, quality of life, physical/emotional functioning, and concomitant medication usage. […] After they commenced on medicinal cannabis treatment they were initially treated with low doses and monitored for safety and efficacy of treatment before dose escalation is considered.
as §2
Patients were assessed monthly by the clinical team (doctor and nurse) and a visit schedule protocol was followed for each patient. A full medical history was conducted at the initial visit, including a detailed history of the clinical indication (including duration symptoms), comorbidities mental and cardiac health conditions, previous procedures, medications and therapies tried. Patients were reviewed as per the Schedule of Assessments (FIG. 2).
as §4
Doctors reviewed patients after the 14 day (2 week), see the Schedule of Assessments (FIG. 2). Following the 2-week dosing review where a doctor may increase/decrease the dosage or change product type, patients were then seen regularly (generally monthly) as per the Schedule of Assessments (FIG. 2). Patients taking CBD only products were prescribed either oil or capsules.

patients = assay: Adverse events recorded at each visit in patients on CBD only
Description: as §3
Adverse events (AE) were recorded at each of the visits. AEs were categorised as either: Mild (required no change in dose or product), Moderate (required change in dose or product), Severe (required cessation of product) or Serious (medical emergency).
All AEs reported during treatment were recorded. Assessments included monitoring of any or all of the following parameters: the participant's clinical symptoms, laboratory, pathological, radiological or surgical history, physical examination findings, and/or or findings from blood/urine tests. The nature, time of onset, duration and severity will be documented, together with the Investigator's opinion of the relationship to the Medicinal cannabis product.
Review of the dose and side effects was conducted by the doctor at 2 weeks; the doctors then advise whether to increase/or decreases doses. Reviews and clinical visits beyond the 2 weeks occurred monthly or more often as required by the patient due to efficacy and side effects.

[1] = average treatment window of slightly under 13 days
[2] = dosage amounts between 50-200 mg per day
[3] = mean treatment horizon of 22 days
[4] = mean treatment period of 7 days
[5] = patients with subthreshold and clinically significant scores at baseline
[6] = among the 36 patients that experienced AEs

## C=C(C)C1CCC(C)=CC1c1c(O)cc(CCCCC)cc1O (stereo not drawn) [cannabidiol, 2-[3-methyl-6-(1-methylethenyl)-2-cyclohexen-1-yl]-5-pentyl-1,3-benzenediol]
Symptoms of depression; All (n = 146), initial mean 17.4 (9.6), p 0.000
  DASS-21 Depression Score, Post 1-month follow-up Mean (Std. dev): 12.8 (10.0)
Symptoms of depression; Mod to extreme (n = 92), initial mean 22.7 (8.0), p 0.000
  DASS-21 Depression Score, Post 1-month follow-up Mean (Std. dev): 16.4 (10.6)
Symptoms of depression; [1]
  Decrease in depression score: −11.2
Symptoms of depression; baseline category Extremely Severe 28+ (n = 28), initial mean 32.9 (5.2), p 0.000
  DASS-21 Depression Score, Post 1-month follow-up Mean (Std. dev): 21.4 (11.6)
Symptoms of depression; baseline category Mild 10-13 (n = 29), initial mean 10.9 (1.0), p 0.000
  DASS-21 Depression Score, Post 1-month follow-up Mean (Std. dev): 7.1 (4.6)
Symptoms of depression; baseline category Moderate 14-20 (n = 49), initial mean 16.4 (2.2), p 0.002
  DASS-21 Depression Score, Post 1-month follow-up Mean (Std. dev): 12.8 (8.1)
Symptoms of depression; baseline category Normal 0-9 (n = 25), initial mean 5.5 (2.3), p 0.543
  DASS-21 Depression Score, Post 1-month follow-up Mean (Std. dev): 6.2 (4.8)
Symptoms of depression; baseline category Severe 21-27 (n = 15), initial mean 24.1 (1.6), p 0.089
  DASS-21 Depression Score, Post 1-month follow-up Mean (Std. dev): 18.8 (11.7)
Symptoms of depression; [2]
  Change in depression score from initial visit to first follow-up versus dosage (FIG. 8): correlated with a higher value of change indicating less symptoms of anxiety, stress and/or depression
Symptoms of depression; [3]
  Fall in depression score: −3.9
Symptoms of depression; [4]
  Decline in depression score: −17.5
Symptoms of depression; [5]
  Mean DASS-21 depression score over the first six months (FIG. 15): significant reduction over the 6-month period
Symptoms of anxiety; All (n = 146), initial mean 13.7 (8.7), p 0.000
  DASS-21 Anxiety Score, Post 1-month follow-up Mean (Std. dev): 9.1 (6.8)
Symptoms of anxiety; Mod to extreme (n = 100), initial mean 17.7 (7.5), p 0.000
  DASS-21 Anxiety Score, Post 1-month follow-up Mean (Std. dev): 11.0 (7.1)
Symptoms of anxiety; [1]
  Decrease in anxiety score: −6.0
Symptoms of anxiety; baseline category Mild 8-9 (n = 13), initial mean 8.0 (0.0), p 0.291
  DASS-21 Anxiety Score, Post 1-month follow-up Mean (Std. dev): 7.1 (3.0)
Symptoms of anxiety; baseline category Moderate 10-14 (n = 50), initial mean 12.1 (1.7), p 0.000
  DASS-21 Anxiety Score, Post 1-month follow-up Mean (Std. dev): 8.8 (5.1)
Symptoms of anxiety; baseline category Normal 0-7 (n = 33), initial mean 3.9 (1.7), p 0.667
  DASS-21 Anxiety Score, Post 1-month follow-up Mean (Std. dev): 4.2 (3.7)
Symptoms of anxiety; baseline category Severe 15-19 (n = 16), initial mean 17.0 (1.0), p 0.009
  DASS-21 Anxiety Score, Post 1-month follow-up Mean (Std. dev): 10.9 (7.9)
Symptoms of anxiety; [2]
  Change in anxiety score from initial visit to first follow-up versus dosage (FIG. 6): correlated with a higher value of change indicating less symptoms of anxiety, stress and/or depression
Symptoms of anxiety; [3]
  Fall in anxiety score: −5.7
Symptoms of anxiety; [4]
  Decline in anxiety score: −10.5
Symptoms of anxiety; [5]
  Mean DASS-21 anxiety score over the first six months (FIG. 14): significant reduction over the 6-month period
patients; 36 out of 190 patients on CBD only
  Patients with any AEs: 19%
patients; [6]
  Share of AEs that were mild (no change in dose or product): 61%
  Share of AEs that were moderate (requiring change in dose or product): 36%
patients; one of the 36 patients with AEs
  Patients with severe AEs (allergic reactions and constipation) resulting in cessation of the product: 2.8%
